Assay results as given in patent publication US5747452A, “Method of modulating tumor cell migration using fibronectin type III peptides” (La Jolla Cancer Research Foundation, priority 1995, dated 1998).

Test system: C11 CHO cells
Assay: Migration assay (in vitro wounding assay)
Type: cell-based, Chinese Hamster
Conditions: 50 μM for 48 hours
Description: Migration was tested by using Chinese Hamster Ovary (CHO) cells in an in vitro "wounding" assay as described previously (Giancotti and Ruoslahti, Cell 60,849(1990)). CHO cells are commercially available and have ATCC number CRL 9096. A3 is an overexpressor of the α5 β1 integrin created by cDNA transfection as described in the article cited above. C11 is a control-transfected line expressing only the endogenous CHO α5 β1. As described in Example XIV below, cells were grown in the absence or presence of 50 μM III1 -C for 48 hours, then the culture was "wounded" by removing cells from the plastic dish by scraping the dish with a plastic pipette tip. The migration of the cells into the "wound" path was monitored by photography at various times.
It is known from previous work (see Giancotti and Ruoslahti, (1990), supra) that there is a correlation between an increase in fibronectin matrix assembly and the decrease in tumorigenic phenotype. Since the polypeptides of the present invention including the recombinant polypeptides are able to modulate fibronectin matrix assembly, these proteins were tested to determine if they could modulate the tumorigenic phenotype of cells. […] As a comparison, A3 CHO cells, which do overexpress α5 β1, fibronectin receptors and are less tumorigenic, were grown in parallel. […]

Substance: III1 -C: Sequence ID No. 11; recombinant protein, residues 600-674 of human fibronectin, from pGEX-2T
- effect on cell migration: retardation of their migration
